# Experimental data reported in patent US10696707B2, “Polyene macrolide derivative” (Shionogi & Co., Ltd., priority 2014, dated 2020).
# Where two headings read alike, the source gives them in different places.
# Key:
# Format in all cases: cell-based
# [1] = test system: C. albicans ATCC90028; experiment: Antifungal activity test, MIC by broth microdilution (CLSI M27-A3); conditions: C. albicans ATCC90028, 35° C., 24-48 hours
# Description: (§1) The Minimum Inhibitory Concentration (MIC) values of the present compound against yeast and filamentous fungi were determined by broth microdilution assay according to the Clinical Laboratory Standards Institute (CLSI) guidelines outlined in documents M27-A3 and M38-A2. The medium used in the assay consisted of RPMI1640 (with glutamine, without bicarbonate) with 2% glucose and 0.165 mol/L morpholinepropanesulfonic acid (MOPS) with pH adjusted to 7.0 using 1 mol/L sodium hydroxide. The present compound was dissolved in dimethyl sulfoxide (DMSO). A series of two-fold dilutions were prepared in DMSO, and then 2 μL of the diluted compound was added to each well in 96-well sterile plates. Each inoculum was prepared by diluting a suspension of Candida spp. or a conidia suspension of Aspergillus spp. suspended in sterile saline solution, and then 200 μL was added to each well to a predetermined concentration using RPMI/MOPS (final concentration for each solution: approximately 1×10^3 cells/mL and approximately 1×10^4 CFU/mL). Plates of Candida spp. and Aspergillus spp. were incubated at 35° C. for 24-48 hours. The MIC was defined as the lowest concentration giving 100% inhibition compared to the growth control.
# [2] = test system: A. flavus ATCC204304; experiment: Antifungal activity test, MIC by broth microdilution (CLSI M38-A2); conditions: A. flavus ATCC204304, 35° C., 24-48 hours
# Description: as §1
# [3] = test system: A. fumigatus ATCC204305; experiment: as above; conditions: A. fumigatus ATCC204305, 35° C., 24-48 hours
# Description: as §1
# [4] = broth microdilution, 100% inhibition
# [5] = lowest concentration giving 100% inhibition
# [6] = Candida albicans, broth microdilution, 100% inhibition, read-out: MIC
# [7] = Aspergillus flavus, broth microdilution, 100% inhibition, read-out: MIC
# [8] = Aspergillus fumigatus, broth microdilution, 100% inhibition, read-out: MIC
Compound,"MIC [1, 4] [µg/mL]","MIC [2, 4] [µg/mL]","MIC [3, 4] [µg/mL]","MIC [1, 5] [µg/mL]","MIC [2, 5] [µg/mL]","MIC [3, 5] [µg/mL]","MIC [1, 6] [µg/mL]","MIC [2, 7] [µg/mL]","MIC [3, 8] [µg/mL]"
C[C@@H]1[C@H](O)[C@@H](C)/C=C/C=C/C=C/C=C/C=C/C=C/C=C/[C@H](O[C@@H]2O[C@H](C)[C@@H](O)[C@H](NC(=O)CN(C)C)[C@@H]2O)C[C@@H]2O[C@](O)(C[C@@H](O)C[C@@H](O)[C@H](O)CC[C@@H](O)C[C@@H](O)CC(=O)O[C@H]1C)C[C@H](O)[C@H]2NC(N)=O [I-325],–,–,–,0.25,0.5,1,–,–,–
C[C@@H]1[C@H](O)[C@@H](C)/C=C/C=C/C=C/C=C/C=C/C=C/C=C/[C@H](O[C@@H]2O[C@H](C)[C@@H](O)[C@H](N)[C@@H]2O)C[C@@H]2O[C@](O)(C[C@@H](O)C[C@@H](O)[C@H](O)CC[C@@H](O)C[C@@H](O)CC(=O)O[C@H]1C)C[C@H](O)[C@H]2NC(=O)N1CC(N(C)C)C1 [I-189],0.25,0.5,0.5,–,–,–,–,–,–
C[C@@H]1[C@H](O)[C@@H](C)/C=C/C=C/C=C/C=C/C=C/C=C/C=C/[C@H](O[C@@H]2O[C@H](C)[C@@H](O)[C@H](N)[C@@H]2O)C[C@@H]2O[C@](O)(C[C@@H](O)C[C@@H](O)[C@H](O)CC[C@@H](O)C[C@@H](O)CC(=O)O[C@H]1C)C[C@H](O)[C@H]2NC(=O)N(C)O [I-266],0.25,0.5,0.5,–,–,–,–,–,–
C[C@@H]1[C@H](O)[C@@H](C)/C=C/C=C/C=C/C=C/C=C/C=C/C=C/[C@H](O[C@@H]2O[C@H](C)[C@@H](O)[C@H](NC(=O)CN(C)C)[C@@H]2O)C[C@@H]2O[C@](O)(C[C@@H](O)C[C@@H](O)[C@H](O)CC[C@@H](O)C[C@@H](O)CC(=O)O[C@H]1C)C[C@H](O)[C@H]2NC(=O)NCCC(N)=O [I-344],–,–,–,0.5,0.5,1,–,–,–
C[C@@H]1[C@H](O)[C@@H](C)/C=C/C=C/C=C/C=C/C=C/C=C/C=C/[C@H](O[C@@H]2O[C@H](C)[C@@H](O)[C@H](NC(=N)N)[C@@H]2O)C[C@@H]2O[C@](O)(C[C@@H](O)C[C@@H](O)[C@H](O)CC[C@@H](O)C[C@@H](O)CC(=O)O[C@H]1C)C[C@H](O)[C@H]2NC(=O)NCCC(N)=O [I-343],–,–,–,0.25,0.5,1,–,–,–
C[C@@H]1[C@H](O)[C@@H](C)/C=C/C=C/C=C/C=C/C=C/C=C/C=C/[C@H](O[C@@H]2O[C@H](C)[C@@H](O)[C@H](N)[C@@H]2O)C[C@@H]2O[C@](O)(C[C@@H](O)C[C@@H](O)[C@H](O)CC[C@@H](O)C[C@@H](O)CC(=O)O[C@H]1C)C[C@H](O)[C@H]2NC(=O)N1C[C@@H](O)[C@H](O)C1 [I-260],–,–,–,–,–,–,0.5,0.5,1

# Next, values leading:
"MIC [1, 4] [µg/mL]","MIC [2, 4] [µg/mL]","MIC [3, 4] [µg/mL]","MIC [1, 5] [µg/mL]","MIC [2, 5] [µg/mL]","MIC [3, 5] [µg/mL]","MIC [1, 6] [µg/mL]","MIC [2, 7] [µg/mL]","MIC [3, 8] [µg/mL]",Compound
0.5,0.5,1,–,–,–,–,–,–,C[C@@H]1[C@H](O)[C@@H](C)/C=C/C=C/C=C/C=C/C=C/C=C/C=C/[C@H](O[C@@H]2O[C@H](C)[C@@H](O)[C@H](N)[C@@H]2O)C[C@@H]2O[C@](O)(C[C@@H](O)C[C@@H](O)[C@H](O)CC[C@@H](O)C[C@@H](O)CC(=O)O[C@H]1C)C[C@H](O)[C@H]2NC(=O)NNC[C@H](O)CO [I-227]
–,–,–,–,–,–,0.25,1,1,CONC(=O)N[C@H]1[C@@H]2C[C@@H](O[C@@H]3O[C@H](C)[C@@H](O)[C@H](N)[C@@H]3O)/C=C/C=C/C=C/C=C/C=C/C=C/C=C/[C@H](C)[C@@H](O)[C@@H](C)[C@H](C)OC(=O)C[C@H](O)C[C@H](O)CC[C@@H](O)[C@H](O)C[C@H](O)C[C@](O)(C[C@@H]1O)O2 [I-59]
0.25,1,1,–,–,–,–,–,–,C[C@@H]1[C@H](O)[C@@H](C)/C=C/C=C/C=C/C=C/C=C/C=C/C=C/[C@H](O[C@@H]2O[C@H](C)[C@@H](O)[C@H](N)[C@@H]2O)C[C@@H]2O[C@](O)(C[C@@H](O)C[C@@H](O)[C@H](O)CC[C@@H](O)C[C@@H](O)CC(=O)O[C@H]1C)C[C@H](O)[C@H]2NC(=O)NC(CN)CO (stereo partly drawn) [I-169]
–,–,–,–,–,–,0.25,1,1,C[C@@H]1[C@H](O)[C@@H](C)/C=C/C=C/C=C/C=C/C=C/C=C/C=C/[C@H](O[C@@H]2O[C@H](C)[C@@H](O)[C@H](N)[C@@H]2O)C[C@@H]2O[C@](O)(C[C@@H](O)C[C@@H](O)[C@H](O)CC[C@@H](O)C[C@@H](O)CC(=O)O[C@H]1C)C[C@H](O)[C@H]2NC(N)=O [I-36]
